ChEMBL document CHEMBL3808348, “Rational Design, Synthesis, and Biological Evaluation of 7-Azaindole Derivatives as Potent Focused Multi-Targeted Kinase Inhibitors” (J Med Chem, 2016)

Tests used:
[1] = molecular target: Fibroblast growth factor receptor 2 (Homo sapiens) (UniProt P21802); assay: Inhibition of His-tagged human recombinant FGFR2 (403 to 822 residues) expressed in baculovirus using Fluorescein-Poly GT as substrate at 100 nM
[2] = molecular target: Serine/threonine-protein kinase B-raf (Homo sapiens) (UniProt P15056); assay: Inhibition of full length GST-tagged human recombinant BRAF expressed in baculovirus using Fluorescein-MAP2K1 as substrate at 100 nM
[3] = molecular target: Epidermal growth factor receptor (Homo sapiens, UniProt P00533); assay: Inhibition of GST-tagged human recombinant EGFR (668 to1210 residues) expressed in baculovirus using Fluorescein-Poly GT as substrate at 100 nM
[4] = molecular target: Platelet-derived growth factor receptor alpha (Homo sapiens, UniProt P16234); assay: Inhibition of full length GST-tagged human recombinant PDGFRalpha expressed in baculovirus using Fluorescein-Poly GT as substrate at 100 nM
[5] = molecular target: Proto-oncogene tyrosine-protein kinase Src (Homo sapiens, UniProt P12931); assay: Inhibition of full length His-tagged human recombinant cSRC expressed in baculovirus using Fluorescein-Poly GT as substrate at 100 nM
[6] = molecular target: Vascular endothelial growth factor receptor 2 (Homo sapiens) (UniProt P35968); assay: Inhibition of full length His-tagged human recombinant VEGFR2 expressed in baculovirus using Fluorescein-Poly GT as substrate at 100 nM
[7] = system: HepG2; assay: Antiproliferative activity against human HepG2 cells after 72 hrs by MTT assay; type: functional, cell-based; details: HepG2, 72 h
[8] = system: HUVEC; assay: Antiangiogenic activity in HUVEC after 72 hrs by MTT assay; type: functional, cell-based; details: Homo sapiens

Sequence of Epidermal growth factor receptor (P00533 whole entry, the tested form may be a part): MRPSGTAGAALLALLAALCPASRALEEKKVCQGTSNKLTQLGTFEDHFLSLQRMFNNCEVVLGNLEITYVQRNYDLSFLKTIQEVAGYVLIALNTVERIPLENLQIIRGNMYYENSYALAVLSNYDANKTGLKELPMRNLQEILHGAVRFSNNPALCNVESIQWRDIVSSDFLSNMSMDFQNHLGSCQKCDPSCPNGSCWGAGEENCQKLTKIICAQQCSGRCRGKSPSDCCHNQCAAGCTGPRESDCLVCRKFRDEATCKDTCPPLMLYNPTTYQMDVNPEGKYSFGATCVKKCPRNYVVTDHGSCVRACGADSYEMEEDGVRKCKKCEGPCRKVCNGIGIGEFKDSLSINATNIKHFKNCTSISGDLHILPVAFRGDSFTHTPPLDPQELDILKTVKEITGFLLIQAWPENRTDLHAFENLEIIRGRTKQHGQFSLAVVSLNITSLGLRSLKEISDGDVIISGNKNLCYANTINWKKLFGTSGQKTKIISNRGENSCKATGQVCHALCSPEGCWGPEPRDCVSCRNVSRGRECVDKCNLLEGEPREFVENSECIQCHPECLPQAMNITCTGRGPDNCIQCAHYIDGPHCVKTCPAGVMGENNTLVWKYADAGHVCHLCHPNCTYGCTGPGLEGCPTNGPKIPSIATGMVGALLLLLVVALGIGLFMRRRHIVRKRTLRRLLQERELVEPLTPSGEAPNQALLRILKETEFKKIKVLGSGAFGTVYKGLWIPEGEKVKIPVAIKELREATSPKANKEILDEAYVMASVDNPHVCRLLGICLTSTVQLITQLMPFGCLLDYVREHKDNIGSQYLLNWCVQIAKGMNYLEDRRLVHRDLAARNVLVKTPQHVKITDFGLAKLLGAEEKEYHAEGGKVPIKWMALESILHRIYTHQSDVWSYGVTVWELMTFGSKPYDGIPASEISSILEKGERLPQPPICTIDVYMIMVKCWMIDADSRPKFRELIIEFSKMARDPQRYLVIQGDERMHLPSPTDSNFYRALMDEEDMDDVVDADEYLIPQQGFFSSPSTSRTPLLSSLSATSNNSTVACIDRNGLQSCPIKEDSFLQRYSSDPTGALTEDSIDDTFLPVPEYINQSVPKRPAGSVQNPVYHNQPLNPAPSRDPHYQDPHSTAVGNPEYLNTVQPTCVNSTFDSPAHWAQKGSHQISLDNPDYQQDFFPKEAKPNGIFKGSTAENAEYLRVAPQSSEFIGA
Sequence of Fibroblast growth factor receptor 2 (Homo sapiens) (P21802 22-821 limits assumed): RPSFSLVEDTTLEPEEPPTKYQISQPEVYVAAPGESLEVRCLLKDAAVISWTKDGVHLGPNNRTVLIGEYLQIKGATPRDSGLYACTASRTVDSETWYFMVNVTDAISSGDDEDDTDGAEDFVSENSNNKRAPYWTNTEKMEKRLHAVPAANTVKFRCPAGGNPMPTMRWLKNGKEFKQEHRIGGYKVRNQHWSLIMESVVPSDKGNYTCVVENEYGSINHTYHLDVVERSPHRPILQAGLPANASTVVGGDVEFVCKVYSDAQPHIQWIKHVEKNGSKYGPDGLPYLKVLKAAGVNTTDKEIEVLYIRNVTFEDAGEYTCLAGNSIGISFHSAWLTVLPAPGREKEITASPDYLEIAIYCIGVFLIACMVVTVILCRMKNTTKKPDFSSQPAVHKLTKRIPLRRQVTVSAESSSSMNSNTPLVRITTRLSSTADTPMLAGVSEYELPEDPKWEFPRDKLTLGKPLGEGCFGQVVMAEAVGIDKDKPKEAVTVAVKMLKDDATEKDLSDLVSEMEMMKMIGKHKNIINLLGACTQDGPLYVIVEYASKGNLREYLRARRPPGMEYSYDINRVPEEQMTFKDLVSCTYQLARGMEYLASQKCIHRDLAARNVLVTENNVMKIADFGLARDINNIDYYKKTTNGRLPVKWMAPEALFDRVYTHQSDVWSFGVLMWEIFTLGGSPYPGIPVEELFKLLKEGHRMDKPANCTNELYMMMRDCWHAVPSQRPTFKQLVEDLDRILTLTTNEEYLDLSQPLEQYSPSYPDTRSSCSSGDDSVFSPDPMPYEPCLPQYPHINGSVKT
Sequence of Proto-oncogene tyrosine-protein kinase Src (P12931 2-536 limits assumed): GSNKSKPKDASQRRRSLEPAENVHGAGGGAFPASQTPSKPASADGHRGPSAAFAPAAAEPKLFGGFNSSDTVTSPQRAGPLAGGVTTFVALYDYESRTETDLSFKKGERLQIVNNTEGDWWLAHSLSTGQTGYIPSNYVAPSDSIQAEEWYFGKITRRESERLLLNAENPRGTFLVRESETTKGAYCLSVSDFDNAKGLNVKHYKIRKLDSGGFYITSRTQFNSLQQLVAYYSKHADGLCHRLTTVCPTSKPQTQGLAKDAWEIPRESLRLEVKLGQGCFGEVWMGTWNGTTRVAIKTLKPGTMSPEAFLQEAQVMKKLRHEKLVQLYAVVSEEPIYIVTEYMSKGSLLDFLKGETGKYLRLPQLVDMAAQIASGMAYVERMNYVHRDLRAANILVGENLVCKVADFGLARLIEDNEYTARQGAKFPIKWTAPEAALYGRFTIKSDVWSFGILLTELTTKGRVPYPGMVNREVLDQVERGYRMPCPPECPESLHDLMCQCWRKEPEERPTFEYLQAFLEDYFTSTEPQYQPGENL
Sequence of Serine/threonine-protein kinase B-raf (Homo sapiens) (P15056 whole entry, the tested form may be a part): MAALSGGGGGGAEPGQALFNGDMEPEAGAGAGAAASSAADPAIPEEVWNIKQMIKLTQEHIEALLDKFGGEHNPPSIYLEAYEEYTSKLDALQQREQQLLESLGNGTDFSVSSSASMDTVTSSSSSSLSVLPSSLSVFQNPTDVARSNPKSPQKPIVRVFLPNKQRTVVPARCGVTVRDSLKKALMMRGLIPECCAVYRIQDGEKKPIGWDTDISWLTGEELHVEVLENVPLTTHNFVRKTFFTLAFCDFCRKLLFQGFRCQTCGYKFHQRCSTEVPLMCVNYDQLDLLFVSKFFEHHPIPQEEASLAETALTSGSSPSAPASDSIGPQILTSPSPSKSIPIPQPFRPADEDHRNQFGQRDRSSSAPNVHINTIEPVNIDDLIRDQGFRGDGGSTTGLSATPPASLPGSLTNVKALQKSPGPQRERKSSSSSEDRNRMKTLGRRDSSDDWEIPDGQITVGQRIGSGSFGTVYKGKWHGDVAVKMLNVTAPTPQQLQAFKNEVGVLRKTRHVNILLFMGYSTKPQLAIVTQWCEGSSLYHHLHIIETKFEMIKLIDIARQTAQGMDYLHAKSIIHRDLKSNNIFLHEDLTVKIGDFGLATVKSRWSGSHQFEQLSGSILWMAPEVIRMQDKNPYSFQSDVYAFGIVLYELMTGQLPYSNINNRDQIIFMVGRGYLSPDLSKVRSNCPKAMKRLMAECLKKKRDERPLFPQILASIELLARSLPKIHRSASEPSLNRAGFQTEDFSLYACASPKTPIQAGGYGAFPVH
Sequence of Platelet-derived growth factor receptor alpha (P16234 whole entry): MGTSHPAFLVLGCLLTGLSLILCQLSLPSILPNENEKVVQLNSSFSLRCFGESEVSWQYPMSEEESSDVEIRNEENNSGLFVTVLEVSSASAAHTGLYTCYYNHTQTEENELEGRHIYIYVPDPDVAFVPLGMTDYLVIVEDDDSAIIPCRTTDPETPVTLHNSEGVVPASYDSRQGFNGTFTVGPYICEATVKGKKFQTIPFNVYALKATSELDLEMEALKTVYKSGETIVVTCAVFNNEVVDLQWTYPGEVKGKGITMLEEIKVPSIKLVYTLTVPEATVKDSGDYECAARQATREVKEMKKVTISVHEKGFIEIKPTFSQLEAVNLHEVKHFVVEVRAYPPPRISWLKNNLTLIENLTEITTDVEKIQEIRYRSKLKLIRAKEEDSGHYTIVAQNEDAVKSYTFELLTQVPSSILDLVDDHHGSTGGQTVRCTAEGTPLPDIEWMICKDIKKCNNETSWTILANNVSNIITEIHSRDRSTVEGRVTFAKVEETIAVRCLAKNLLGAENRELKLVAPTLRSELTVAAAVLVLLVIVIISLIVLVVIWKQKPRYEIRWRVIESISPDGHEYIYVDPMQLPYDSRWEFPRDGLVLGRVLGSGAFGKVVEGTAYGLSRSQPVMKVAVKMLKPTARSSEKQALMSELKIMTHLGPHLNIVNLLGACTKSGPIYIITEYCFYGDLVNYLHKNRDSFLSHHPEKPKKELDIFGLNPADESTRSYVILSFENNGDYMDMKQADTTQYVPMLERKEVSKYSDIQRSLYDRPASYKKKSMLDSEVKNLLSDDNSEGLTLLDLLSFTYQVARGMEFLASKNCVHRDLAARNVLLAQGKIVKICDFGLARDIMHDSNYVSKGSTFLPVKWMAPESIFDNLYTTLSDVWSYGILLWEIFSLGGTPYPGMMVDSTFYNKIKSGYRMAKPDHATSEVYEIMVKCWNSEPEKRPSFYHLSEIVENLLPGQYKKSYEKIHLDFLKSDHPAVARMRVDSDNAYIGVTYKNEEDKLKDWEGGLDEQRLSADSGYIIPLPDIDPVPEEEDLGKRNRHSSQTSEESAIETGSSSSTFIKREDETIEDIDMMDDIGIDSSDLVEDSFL

Row | inhibition [1] | inhibition [2] | inhibition [3] | inhibition [4] | inhibition [5] | inhibition [6] | EC50 [7] | SMILES | EC50 [8]
1 | 4% | 51% | 15% | 71% | 11% | 37% | – | COC(=O)c1cc2cc(NCc3cc(NC(=O)c4cc[nH]c4)ccc3C)cnc2[nH]1 | –
2 | -6% | 85% | 49% | 82% | 51% | 46% | > 1000 nM | COC(=O)c1cc2cc(NCc3cc(NC(=O)c4ccnc(C)c4)ccc3C)cnc2[nH]1 | 986 nM
3 | 14% | 12% | 96% | 79% | 75% | 72% | – | Cc1ccc(NC(=O)c2ccc(CN3CCN(C)CC3)cc2)cc1CNc1cnc2[nH]c(C(=O)O)cc2c1 | –
4 | 7% | 39% | 63% | 68% | 108% | 38% | – | COC(=O)c1cc2cc(NCc3cc(NC(=O)c4cccc(C(F)(F)F)c4)ccc3C)cnc2[nH]1 | –
5 | 35% | – | 98% | 99% | 91% | 98% | – | COC(=O)c1cc2cc(CCc3cc(NC(=O)c4ccc(CN5CCN(C)CC5)cc4)ccc3C)cnc2[nH]1 | –
6 | 8% | 17% | 63% | 88% | 47% | 46% | – | COC(=O)c1cc2cc(CNc3cc(NC(=O)c4ccc(CN5CCN(C)CC5)cc4)ccc3C)cnc2[nH]1 | –
7 | 19% | 95% | 72% | 93% | 89% | 89% | 510 nM | COC(=O)c1cc2cc(NCc3cc(NC(=O)c4cncc(C)c4)ccc3C)cnc2[nH]1 | > 1000 nM
8 | -4% | 65% | 45% | 87% | 59% | 59% | > 1000 nM | COC(=O)c1cc2cc(NCc3cc(NC(=O)c4ccc5[nH]ccc5c4)ccc3C)cnc2[nH]1 | 199 nM
9 | 2% | 24% | 38% | 88% | 40% | 51% | – | COC(=O)c1cc2cc(/C=C/c3cc(NC(=O)c4ccc(CN5CCN(C)CC5)cc4)ccc3C)cnc2[nH]1 | –
10 | 8% | 71% | 65% | 41% | 94% | 97% | > 1000 nM | COC(=O)c1cc2cc(NC(=O)c3cc(NC(=O)c4ccc(CN5CCN(C)CC5)cc4)ccc3C)cnc2[nH]1 | > 1000 nM
11 | 13% | 73% | 78% | 93% | 101% | 73% | 963 nM | COC(=O)c1cc2cc(NCc3cc(NC(=O)c4cncc(C(F)(F)F)c4)ccc3C)cnc2[nH]1 | 390 nM
12 | 38% | 33% | 59% | 68% | 55% | 61% | – | COC(=O)c1cc2cc(/C=C/c3cc(NC(=O)c4ccc(CN5CCC(N(C)C)C5)c(C(F)(F)F)c4)ccc3C)cnc2[nH]1 (configuration not stated) | –
13 | 5% | 11% | 64% | 71% | 86% | 9% | – | COC(=O)c1cc2cc(NCc3cc(NC(=O)c4ccc(Cl)c(C(F)(F)F)c4)ccc3C)cnc2[nH]1 | –
14 | 18% | 67% | 86% | 86% | 77% | 92% | > 1000 nM | CC(=O)c1cc2cc(CCc3cc(NC(=O)c4ccc(CN5CCN(C)CC5)cc4)ccc3C)cnc2[nH]1 | 118 nM
15 | 23% | 86% | 99% | 95% | 98% | 93% | > 1000 nM | CNC(=O)c1cc2cc(NCc3cc(NC(=O)c4ccc(CN5CCN(C)CC5)cc4)ccc3C)cnc2[nH]1 | > 1000 nM
16 | 6% | 74% | 32% | 87% | 84% | 72% | – | COC(=O)c1cc2cc(NCc3cc(NC(=O)c4cccc(C)c4)ccc3C)cnc2[nH]1 | –
17 | 6% | 61% | 2% | 87% | 58% | 29% | – | COC(=O)c1cc2cc(NCc3cc(NC(=O)Cc4cccc(C(F)(F)F)c4)ccc3C)cnc2[nH]1 | –

Row | inhibition [1] | inhibition [2] | inhibition [3] | inhibition [4] | inhibition [5] | inhibition [6] | EC50 [7] | SMILES | EC50 [8]
18 | 3% | 37% | 53% | 74% | 66% | 36% | – | COC(=O)c1cc2cc(NCc3cc(NC(=O)c4ccc(O)c(C(F)(F)F)c4)ccc3C)cnc2[nH]1 | –
19 | -1% | 35% | 66% | 74% | 72% | 13% | – | COC(=O)c1cc2cc(NCc3cc(NC(=O)c4ccc(-c5csc(C)n5)cc4)ccc3C)cnc2[nH]1 | –
20 | -2% | -7% | 32% | 42% | 42% | 13% | – | COC(=O)c1cc2cc(NCc3cc(NC(=O)c4ccnc(C(F)(F)F)c4)ccc3C)cnc2[nH]1 | –
21 | 10% | 16% | 64% | 47% | 74% | 19% | – | COC(=O)c1cc2cc(NCc3cc(NC(=O)c4ccc(C)c(C(F)(F)F)c4)ccc3C)cnc2[nH]1 | –
22 | 8% | 29% | 39% | 66% | 105% | 40% | – | COC(=O)c1cc2cc(NCc3cc(NC(=O)c4cccc(OC(F)(F)F)c4)ccc3C)cnc2[nH]1 | –
23 | 13% | 55% | 43% | 24% | 59% | 24% | – | CC(=O)c1cc2cc(NCc3cc(NC(=O)c4cc(-n5cnc(C)c5)cc(C(F)(F)F)c4)ccc3C)cnc2[nH]1 | –
24 | 8% | 71% | -1% | 97% | 65% | 41% | – | COC(=O)c1cc2cc(NCc3cc(NC(=O)Cc4ccccc4Br)ccc3C)cnc2[nH]1 | –
25 | 49% | 18% | 91% | 63% | 69% | 58% | – | Cc1cn(-c2cc(C(=O)Nc3ccc(C)c(CNc4cnc5[nH]c(C(=O)O)cc5c4)c3)cc(C(F)(F)F)c2)cn1 | –
26 | 5% | 14% | 42% | 42% | 108% | 22% | – | COC(=O)c1cc2cc(NCc3cc(NC(=O)c4cc(N(C)C)cc(C(F)(F)F)c4)ccc3C)cnc2[nH]1 | –
27 | 12% | 62% | 16% | 93% | 78% | 42% | – | COC(=O)c1cc2cc(NCc3cc(NC(=O)c4ccccc4OC)ccc3C)cnc2[nH]1 | –
28 | 15% | 24% | 52% | 61% | 99% | 32% | – | COC(=O)c1cc2cc(NCc3cc(NC(=O)c4cccc(C(C)C)c4)ccc3C)cnc2[nH]1 | –
29 | 5% | 35% | 99% | 96% | 87% | 88% | – | CC(=O)c1cc2cc(NCc3cc(NC(=O)c4ccc(CN5CCN(C)CC5)cc4)ccc3C)cnc2[nH]1 | –
30 | 14% | 7% | 81% | 98% | 58% | 67% | – | COC(=O)c1cc2cc(COc3cc(NC(=O)c4ccc(CN5CCN(C)CC5)cc4)ccc3C)cnc2[nH]1 | –
31 | 71% | 33% | 98% | 66% | 86% | 80% | – | Cc1ccc(NC(=O)c2ccc(CN3CCC(N(C)C)C3)c(C(F)(F)F)c2)cc1CNc1cnc2[nH]c(C(=O)O)cc2c1 (configuration not stated) | –
32 | -7% | 50% | 81% | 76% | 39% | 0% | – | COC(=O)c1cc2cc(NCc3cc(NC(=O)c4ccc(C(F)(F)F)nc4)ccc3C)cnc2[nH]1 | –
33 | 1% | 63% | 35% | 87% | 85% | 59% | – | COC(=O)c1cc2cc(NCc3cc(NC(=O)c4cccc(Br)c4)ccc3C)cnc2[nH]1 | –
34 | 4% | 69% | 20% | 77% | 34% | 18% | – | COC(=O)c1cc2cc(NCc3cc(NC(=O)c4ccc5nn[nH]c5c4)ccc3C)cnc2[nH]1 | –
